The source made the active and inactive calls.
Assays:
[1] = molecular target: Potassium voltage-gated channel subfamily KQT member 2 (Rattus norvegicus, UniProt O88943, W236L); assay: potentiation of rat KCNQ2 current – cell-based, automated electrophysiology, mechanism study for KCNQ2 potentiator project, dose response (AID 2603); assay type: functional
[2] = molecular target: T1, Long-chain-fatty-acid--AMP ligase FadD28 (Mycobacterium tuberculosis, UniProt P9WQ59); assay: Fluorescence polarization aasay to screen for inhibitors that compete for the binding of FadD28 to a bisubstrate Measured in Biochemical System Using Plate Reader - 2147-01_Inhibitor_Dose_CherryPick_Activity.; assay type: functional, Mycobacterium tuberculosis H37Rv
T1 sequence (P9WQ59 whole entry): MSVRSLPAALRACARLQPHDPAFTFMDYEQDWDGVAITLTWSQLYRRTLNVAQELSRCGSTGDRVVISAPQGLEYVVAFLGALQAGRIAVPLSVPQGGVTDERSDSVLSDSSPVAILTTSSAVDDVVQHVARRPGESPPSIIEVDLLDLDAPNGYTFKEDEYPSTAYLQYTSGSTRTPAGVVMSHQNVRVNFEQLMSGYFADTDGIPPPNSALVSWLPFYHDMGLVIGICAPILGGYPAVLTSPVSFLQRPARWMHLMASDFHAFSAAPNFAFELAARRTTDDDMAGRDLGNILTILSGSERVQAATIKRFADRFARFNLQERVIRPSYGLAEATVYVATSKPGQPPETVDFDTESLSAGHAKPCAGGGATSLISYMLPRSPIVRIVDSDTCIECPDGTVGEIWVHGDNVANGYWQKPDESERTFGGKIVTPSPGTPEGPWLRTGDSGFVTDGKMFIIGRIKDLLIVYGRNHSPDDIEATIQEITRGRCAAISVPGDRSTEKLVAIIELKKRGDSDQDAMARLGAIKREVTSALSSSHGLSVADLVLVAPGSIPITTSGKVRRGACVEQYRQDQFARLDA

[3] = A High Throughput Confirmatory Assay used to Identify Novel Compounds that Inhibit Mycobacterium Tuberculosis in the absence of Glycerol.; assay type: functional
[4] = microbe, parasite or virus in culture; assay type: functional; details: Mycobacterium tuberculosis
[5] = HEK-293T viability loss after treatment – luminescence, T-cell screen hits, cytotoxicity control for TCR NF-kB inhibitor project, dose response (AID 489026); assay type: functional, cell-based;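 also: cells exposed to compound about 14 hours before the viability readout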
[6] = viability of uninfected HEp-2 cells – cell-based, HTS, cytotoxicity control for RSV inhibitor project, dose response (AID 2410); assay type: functional; details: human respiratory syncytial virus
Vero = assay: inhibition of WNV-induced cytopathic effect – cell-based, CPE readout (AID 1621); assay type: functional; details: Chlorocebus sabaeus
[7] = molecular target: Protein-tyrosine kinase 2-beta (Homo sapiens, UniProt Q14289);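 also: potency of inhibitors of PYK2 kinase phosphorylation of poly-GT substrate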
Protein-tyrosine kinase 2-beta, sequence (Q14289 whole entry): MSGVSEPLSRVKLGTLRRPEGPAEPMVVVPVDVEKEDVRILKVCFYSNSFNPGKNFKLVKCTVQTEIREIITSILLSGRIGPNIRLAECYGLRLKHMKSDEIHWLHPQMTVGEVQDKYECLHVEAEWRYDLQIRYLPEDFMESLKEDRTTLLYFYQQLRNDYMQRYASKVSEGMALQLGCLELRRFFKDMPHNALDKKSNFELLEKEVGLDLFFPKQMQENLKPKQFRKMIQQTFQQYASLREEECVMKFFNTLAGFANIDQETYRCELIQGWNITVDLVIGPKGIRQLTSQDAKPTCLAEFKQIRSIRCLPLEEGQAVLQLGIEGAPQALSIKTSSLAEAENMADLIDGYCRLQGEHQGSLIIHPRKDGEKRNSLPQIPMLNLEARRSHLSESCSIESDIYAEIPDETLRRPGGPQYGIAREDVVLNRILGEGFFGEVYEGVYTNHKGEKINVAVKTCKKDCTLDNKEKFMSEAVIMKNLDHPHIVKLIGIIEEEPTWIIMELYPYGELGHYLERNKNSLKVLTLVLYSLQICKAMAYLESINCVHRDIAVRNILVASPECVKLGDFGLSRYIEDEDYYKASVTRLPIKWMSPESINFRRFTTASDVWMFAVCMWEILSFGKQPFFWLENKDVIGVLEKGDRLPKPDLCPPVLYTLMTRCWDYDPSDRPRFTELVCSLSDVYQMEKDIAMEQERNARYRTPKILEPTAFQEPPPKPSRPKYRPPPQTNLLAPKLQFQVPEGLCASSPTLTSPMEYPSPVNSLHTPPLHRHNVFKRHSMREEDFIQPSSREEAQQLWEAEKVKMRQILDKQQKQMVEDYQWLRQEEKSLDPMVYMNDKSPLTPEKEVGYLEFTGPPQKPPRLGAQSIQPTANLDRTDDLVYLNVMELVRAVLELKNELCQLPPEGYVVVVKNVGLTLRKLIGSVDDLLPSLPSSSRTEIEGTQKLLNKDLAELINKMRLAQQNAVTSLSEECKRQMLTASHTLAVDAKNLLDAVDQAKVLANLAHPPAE

Danio rerio = assay: In Vivo Angiogenesis Dose-Response Confirmation. [Related pubchem assays: 732 (Assay preceding this confirmatory assay.)]; assay type: functional, organism-based
[8] = molecular target: Transitional endoplasmic reticulum ATPase (Homo sapiens, UniProt P55072, C522A); assay: Luminescence counterscreen assay for p97 inhibitors: dose response biochemical high throughput screening assay to identify inhibitors of the C522A mutant p97 ATPase: synthesized compounds. [Related pubchem assays: 1481, 1517, 1551 ]
Transitional endoplasmic reticulum ATPase (Homo sapiens, UniProt P55072, C522A), sequence (P55072 2-806 C522A limits assumed): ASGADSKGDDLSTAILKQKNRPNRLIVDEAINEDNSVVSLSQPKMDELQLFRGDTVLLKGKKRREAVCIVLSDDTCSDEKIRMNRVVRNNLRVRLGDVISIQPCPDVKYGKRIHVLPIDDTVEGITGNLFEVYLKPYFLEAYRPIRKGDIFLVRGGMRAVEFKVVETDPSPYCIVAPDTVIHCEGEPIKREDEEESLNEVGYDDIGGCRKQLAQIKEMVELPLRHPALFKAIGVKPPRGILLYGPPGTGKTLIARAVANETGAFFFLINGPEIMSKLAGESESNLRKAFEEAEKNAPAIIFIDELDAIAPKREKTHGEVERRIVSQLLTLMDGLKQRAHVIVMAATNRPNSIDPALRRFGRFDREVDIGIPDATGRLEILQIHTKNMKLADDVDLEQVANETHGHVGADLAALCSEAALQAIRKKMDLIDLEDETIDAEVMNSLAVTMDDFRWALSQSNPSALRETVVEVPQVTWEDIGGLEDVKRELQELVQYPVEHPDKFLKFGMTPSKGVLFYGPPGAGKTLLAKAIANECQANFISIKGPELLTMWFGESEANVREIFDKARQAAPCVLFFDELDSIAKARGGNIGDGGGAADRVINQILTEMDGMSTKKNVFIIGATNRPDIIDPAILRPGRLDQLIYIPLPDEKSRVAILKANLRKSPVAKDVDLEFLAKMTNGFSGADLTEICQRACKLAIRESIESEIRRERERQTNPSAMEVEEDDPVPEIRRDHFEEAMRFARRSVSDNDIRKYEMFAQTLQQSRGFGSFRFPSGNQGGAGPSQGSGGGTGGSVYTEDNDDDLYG

[9] = molecular target: Transitional endoplasmic reticulum ATPase (Homo sapiens, UniProt P55072); assay: Luminescence dose response biochemical high throughput screening assay for inhibitors of the p97 ATPase: synthesized compounds. [Related pubchem assays: 1481, 1517 ]
Transitional endoplasmic reticulum ATPase (Homo sapiens, UniProt P55072), sequence (P55072 whole entry): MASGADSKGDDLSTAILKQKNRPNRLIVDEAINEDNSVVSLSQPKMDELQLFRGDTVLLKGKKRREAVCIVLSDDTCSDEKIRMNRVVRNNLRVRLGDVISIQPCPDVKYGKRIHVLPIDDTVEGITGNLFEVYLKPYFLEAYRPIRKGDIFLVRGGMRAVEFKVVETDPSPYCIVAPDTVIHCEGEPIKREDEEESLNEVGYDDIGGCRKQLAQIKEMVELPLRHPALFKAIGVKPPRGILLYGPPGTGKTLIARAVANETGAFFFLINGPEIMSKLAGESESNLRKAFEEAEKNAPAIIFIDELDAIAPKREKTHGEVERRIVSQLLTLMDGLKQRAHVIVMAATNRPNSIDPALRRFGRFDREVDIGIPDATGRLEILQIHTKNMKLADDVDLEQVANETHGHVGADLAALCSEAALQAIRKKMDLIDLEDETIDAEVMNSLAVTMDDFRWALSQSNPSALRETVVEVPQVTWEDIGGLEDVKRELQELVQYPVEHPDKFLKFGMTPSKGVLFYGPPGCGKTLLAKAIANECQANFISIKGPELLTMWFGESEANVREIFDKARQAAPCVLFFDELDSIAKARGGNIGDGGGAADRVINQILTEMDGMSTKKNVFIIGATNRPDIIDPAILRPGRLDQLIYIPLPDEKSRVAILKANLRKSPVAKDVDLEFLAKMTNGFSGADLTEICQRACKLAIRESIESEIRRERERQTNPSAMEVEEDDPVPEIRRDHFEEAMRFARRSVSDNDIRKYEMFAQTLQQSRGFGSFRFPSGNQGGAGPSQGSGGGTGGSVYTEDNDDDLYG

Potassium voltage-gated channel subfamily KQT member 2, sequence (O88943 whole entry W236L): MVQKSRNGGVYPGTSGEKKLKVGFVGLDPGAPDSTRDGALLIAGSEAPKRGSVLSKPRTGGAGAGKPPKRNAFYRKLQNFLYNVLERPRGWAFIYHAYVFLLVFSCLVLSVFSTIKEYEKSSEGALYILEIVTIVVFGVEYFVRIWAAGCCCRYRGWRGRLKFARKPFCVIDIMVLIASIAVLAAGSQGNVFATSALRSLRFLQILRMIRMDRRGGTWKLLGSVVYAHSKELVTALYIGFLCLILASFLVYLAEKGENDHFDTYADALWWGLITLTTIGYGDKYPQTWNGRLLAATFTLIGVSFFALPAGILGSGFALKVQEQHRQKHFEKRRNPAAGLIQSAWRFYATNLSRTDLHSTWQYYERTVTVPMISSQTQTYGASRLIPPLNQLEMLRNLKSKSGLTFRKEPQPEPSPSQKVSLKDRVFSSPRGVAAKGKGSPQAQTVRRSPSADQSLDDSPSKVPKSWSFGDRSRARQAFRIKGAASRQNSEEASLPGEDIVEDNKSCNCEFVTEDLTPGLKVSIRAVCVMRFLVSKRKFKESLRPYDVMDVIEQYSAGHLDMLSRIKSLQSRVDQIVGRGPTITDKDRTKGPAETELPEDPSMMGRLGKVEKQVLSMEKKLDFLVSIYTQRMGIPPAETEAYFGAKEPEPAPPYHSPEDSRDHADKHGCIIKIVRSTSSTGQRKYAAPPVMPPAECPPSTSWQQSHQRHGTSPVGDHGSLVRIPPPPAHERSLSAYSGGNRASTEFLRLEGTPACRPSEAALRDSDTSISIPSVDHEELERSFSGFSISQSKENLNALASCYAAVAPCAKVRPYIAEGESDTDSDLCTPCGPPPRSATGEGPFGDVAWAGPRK

## CC(C)n1c(O)c(N=Nc2ccc(Cl)c(C(=O)O)c2)c2ccccc21
[1]
  EC50: 3.7 µM (active)
[2]
  AC50: 35.7 µM (active)

## C#CCOc1ccc2c(c1)c(C(C)=O)c(C)n2Cc1ccccc1
[3]
  IC50: > 100 µM (active)
[4]
  CC50: > 40 µM (active)

## CC(C)c1oc(=O)cc2c1[C@@H](O)[C@H]1OC(=O)[C@@]3(C)CC[C@@H](O)[C@@]2(C)C13 (some centres not stated)
[5]
  IC50: > 80 µM (inactive)
[6]
  CC50: 10.4 µM (active)
Vero
  IC50: 17.4 µM (active)
cells
  IC50: 12.2 µM (active)

## Clc1ccc2[nH]cc(-c3nnnn3-c3ccccc3)c2c1
[7]
  IC50: > 69.5 µM (not active)

## O=C1Nc2ccc(F)cc2/C1=C1/Nc2ccc(Br)cc2/C1=N\O
Danio rerio
  IC50: 0.29 µM (not active)

## CCOC(=O)/C(C#N)=C/c1c[nH]c2ccc(C#N)cc12
[8]
  IC50: > 50 µM (not active)
[9]
  IC50: > 50 µM (not active)
